Key:
[1] = test system: downy mildew (Peronospora paratsitica Lui); assay: Field trial, foliar spray against downy mildew (Example 24); format: in vivo; conditions: compared with the check
Method: (§1) Silver (III) periodate was tested as a fungicidal foliar spray treatment against alternaria leaf blight (Alternaria brassicicola) and downy mildew (Peronospora paratsitica Lui) in cauliflower (Brassica oleracea var. botrytis) and broccoli (Brassica oleracea […]), respectively.
See Example 23 for Preparation of Tomato Seed; Preparation of Field; Seeding; Plot Maintenance; Preparation of Spray Treatment Solutions and Inoculum; Spray Treatment Procedure; and Data Collection.

bacterial speck = assay: Field trial, foliar spray against bacterial speck in tomato (Example 22); format: in vivo; conditions: compared with the standard Kocide and Kocide+Dithane
Method: Silver (III) periodate was tested as a foliar spray treatment fungicide against bacterial speck in tomato.
See Example 22 for Preparation of Tomato Seed; Preparation of Field; Seeding; Plot Maintenance; Preparation of Spray Treatment Solutions and Inoculum; Spray Treatment Procedure; and Data Collection.
The treatments compared were water (control), oxysilver nitrate, silver (III) periodate, Dithane, Kocide 2000, Dithane DG 75+Kocide 2000, oxysilver nitrate+Dithane, and silver (III) periodate+Dithane, Serenade Max, and Serenade Max+oxysilver nitrate.

[2] = test system: Escherichia coli (ATCC 25922); assay: MBEC P&G assay in dilutions of feces; format: cell-based
Method: The challenge time was 4 hours. The tested concentration range for both silver compounds was 500 to 7.8 ppm.

[3] = test system: Escherichia coli (ATCC 25922); assay: MBEC P&G assay in dilutions of urine; format: cell-based
Method: (§2) The effects of silver (III) periodate and silver nitrate in different dilutions of urine (0.001%, 0.01%, 0.1%, 1%, 10%, 50%) using the MBEC™ P&G assay were tested against Escherichia coli (ATCC 25922)The challenge time was 4 hours. The tested concentration range for both silver compounds was 500 to 7.8 ppm.

[4] = test system: Escherichia coli ATCC 25922; assay: MBEC P&G assay in dilutions of human serum; format: cell-based
Method: (§3) The effects of silver (III) periodate and silver nitrate were tested in different dilutions of human serum (0.001%, 0.01%, 0.1%, 1%, 10%, 50%) using the MBECTM P&G assay against relevant clinical human pathogens Escherichia coli, Staphylococcus aureus (MRSA), and Candida albicans. The challenge time was 4 hours. The tested concentration range for the silver compounds was 500 to 7.8 ppm.

[5] = test system: Staphylococcus aureus (MRSA) 456; assay: MBEC P&G assay in dilutions of human serum; format: cell-based
Method: as §3

[6] = test system: Candida albicans ATCC 28367; assay: MBEC P&G assay in dilutions of human serum; format: cell-based
Method: as §3

[7] = test system: bacterial speck (Pseudomonas syringae pv. tomato); assay: Field trial, foliar spray against bacterial speck in tomatoes (Example 18); format: in vivo, tomatoes (Lycopersicon esculentum); conditions: after three treatment sprays
[8] = test system: bacterial canker (Clavibacter michiganensis pv. michiganensis); assay: Field trial, foliar spray against bacterial canker in tomatoes (Example 19); format: in vivo, tomatoes (Lycopersicon esculentum)
Method: Silver (III) periodate was tested as a bactericidal foliar spray treatment against bacterial canker (Clavibacter michiganensis pv. michiganensis) in tomatoes (Lycopersicon esculentum).
See Example 18 for Preparation of Tomato Seed; Preparation of Field; Seeding; Plot Maintenance; Preparation of Spray Treatment Solutions and Inoculum; Spray Treatment Procedure; and Data Collection.

P. aeruginosa ATCC 27853 = assay: Silver (III) periodate efficacy testing in the presence of Cl-, SO4 2-, and PO4 3-; format: cell-based; conditions: water, 1% NaCl, 1% K2SO4 and 1% K2HPO4 solutions; challenge time 30 minutes; tested 1.5-200 ppm
Method: Silver (III) periodate was tested for efficacy in water, 1% NaCl, 1% K2SO4, and 1% K2HPO4 solutions, and compared with silver nitrate. The test solutions were tested against P. aeruginosa ATCC 27853. The challenge time was 30 minutes. Silver (III) periodate and silver nitrate were tested at range of 1.5-200 ppm.

[9] = test system: Escherichia coli (ATCC 25922); assay: MBEC P&G assay in dilutions of mucin; format: cell-based
Method: as §2, with “mucin (2.0%, 1.0%, 0.5%, 0.25%, 0.12%, 0.06%) were tested” for “urine (0.001%, 0.01%, 0.1%, 1%, 10%, 50%)”, “assay” for “assay were tested”

[10] = test system: alternaria leaf blight (Alternaria brassicicola); assay: Field trial, foliar spray against alternaria leaf blight in cauliflower and broccoli (Example 23); format: in vivo
Method: as §1
Preparation of Seed, Preparation of Field, Seeding, Plot Maintenance: Two trials were conducted in organic soil (pH ≈7.2, organic matter ≈47.2%). Cauliflower and broccoli were seeded into 128-cell Plastomer plug trays in early June and hand transplanted in early July in two rows, 86 cm apart and 9 meter in length, with an in-row spacing of 40 cm. A randomized complete block arrangement with four replicates per treatment was used. Treatments were applied in July and August using a CO2 backpack sprayer equipped with 4 TeeJet D-2 hollow cone nozzles spaced 40 cm apart and calibrated to deliver 250 L/ha at 240 kPa.
This was immediately followed by irrigation to achieve leaf wetness. The plots were treated prior to inoculation.
Preparation of Spray Treatment Solutions and Inoculum: The treatment rate for silver (III) periodate was 0.16 kg/ha. It was also combined (at this rate) with Bravo, which was delivered at 2.5L/ha.
Data Collection: Plants were monitored weekly to determine when lesions were first observed. Plants (15 per rep, randomly selected and marked for continued assessment) were assessed twice during the growing season for number of lesions per leaf. As heads mature, 15 heads per rep in total were harvested and assessed from each experimental unit. The number of Alternaria le sions per leaf were counted. Healthy leaves were counted and trimmed head weights were recorded to indicate marketable yield.
Treatments compared were oxysilver nitrate, silver (III) periodate, Bravo, Bravo+oxysilver nitrate, Bravo+silver (III) periodate, and water (control).

[11] = test system: relevant clinical pathogens in biofilm form (Pseudomonas aeruginosa, MRSA, MRSE, Acinetobacter baumanii, Listeria monocytogenes, VRE, Escherichia coli, Candida …); assay: MBEC efficacy testing against relevant clinical pathogens in saline; format: cell-based; conditions: challenge time 4 hours, 2000 ppm to 15.62 ppm
Method: The antimicrobial effect of silver (III) periodate and silver nitrate (2000 ppm to 15.62 ppm) in saline was tested against Pseudomonas aeruginosa, Staphylococcus aureus (MRSA), Staphylococcus epidermidis (MRSE), Acinetobacter baumanii, Listeria monocytogenes, Enterococcus faecalis (VRE), Escherichia coli, Candida albicans, Klebsiella pneumonia, Enterobacter aerongenes. The challenge time was 4 hours.

SMILES: [Ag+3].[Na+].[Na+].[Na+].[Na+].[Na+].[O-][I+]([O-])([O-])([O-])([O-])O.[O-][I+]([O-])([O-])([O-])([O-])O [silver (III) periodate, sodium diperiodatoargentate]
- downy mildew severity indexes [1]: significantly lower downy mildew severity indexes than the check
- levels of bacterial speck (number of infected leaves) or disease severity ratings (bacterial speck): did not have statistically different levels
- MBC, effective level ([2]; 1.56% feces): > 15.6 ppm
- MBEC, effective level ([2]; 1.56% feces): 125 ppm
- MBC, effective level ([2]; 3.13% feces): > 31.25 ppm
- MBEC, effective level ([2]; 3.13% feces): 250 ppm
- MBC, effective level ([2]; 6.25% feces): > 62.5 ppm
- MBEC, effective level ([2]; 6.25% feces): 125 ppm
- MBC, effective level ([2]; 12.5% feces): > 62.5 ppm
- MBC, effective level ([2]; 25% feces): higher than 125 ppm
- MBC, effective level ([2]; 50% feces): higher than 125 ppm
- MBEC, effective level ([2]; concentrations of feces higher than 12.5%, ineffective at highest tested concentration): > 500 ppm
- MBC cut-off point ([3]; 10% urine): 31.25 ppm
- MBC cut-off point ([3]; 100% urine): 250 ppm
- log reduction ([3]; 500 and 250 ppm, all tested concentrations of urine): approximately equal log reductions
- log reduction compared with the other compound ([3]; compound concentrations of 125 ppm and below): larger log reduction at the lower and middle concentrations
- compound concentration giving the highest log reduction ([3]; concentrations at 125 ppm and below, urine): 62.5 ppm
- log reduction compared with silver nitrate ([4]; 0.1% and 0.01% human serum, low tested concentrations): lower log reduction than silver nitrate
- difference in log reduction over silver nitrate ([4]; 50% and 10% human serum, even at concentrations as low as 7.8 ppm): 1.5-2.0 log reduction
- log reduction, trend with compound concentration ([4]; human serum dilutions, in general, 4 hours, 500 to 7.8 ppm): log reductions decreased with the decrease in concentrations of silver (III) periodate
- log reduction compared with the other compound ([5]; 0.001% human serum, 31.25-125 ppm): higher log reductions
- killing activity ([5]; 0.1% and 0.01% human serum): no significant killing activity
- killing activity, silver (III) periodate vs silver nitrate ([5]; high concentrations of human serum): no significant differences
- log reduction ([6]; 0.1%, 0.01%, 0.001% human serum, concentrations higher than 125 ppm): higher log reductions
- log reduction ([6]; 10% and 1% human serum, 31.25-125 ppm): Log reductions were higher
- disease severity on foliage [7]: best at reducing disease severity on foliage
- disease severity on foliage ([8]; after three treatment sprays): best at reducing disease severity on foliage
- disease severity on foliage ([8]; after two treatment sprays): best at reducing disease severity on foliage
- effective concentration (P. aeruginosa ATCC 27853): 1.73 ppm
- log reduction, trend with compound concentration ([9]; higher concentrations of mucin): log reduction decreased with a decrease in concentration of silver (III) periodate
- effectiveness compared with the other compound ([9]; higher concentrations of mucin (2% and 1%)): more effective than silver nitrate
- log reduction, trend with compound concentration ([9]; lower concentrations of mucin (0.25%, 0.12% and 0.06%)): log reduction was relatively unaffected by the changes in concentration
- effectiveness compared with the other compound ([9]; mucin 0.5%, 0.25%, 0.12% and 0.06%, lower compound concentrations): more effective than the lower tested concentrations of silver nitrate
- harvest weights ([10]; broccoli): higher harvest weights (not significant)
- Alternaria lesions per leaf ([10]; compared with the check, broccoli): significantly lower Alternaria lesions per leaf than the check
- Alternaria lesions per leaf ([10]; second result paragraph, crop not given): higher Alternaria lesions per leaf than the check and other treatments
- MBEC (minimum biofilm eradication concentration) killing activity [11]: higher killing activity than silver nitrate against most of the tested strains

Source: patent US20120328713A1, “Articles of Manufacture with Improved Anti-microbial Properties” (priority 2009, published 2012)
